# Data taken from US20240425478A1, “CYCLOPENTYLPYRAZOLE CDK2 INHIBITORS” (Genentech, Inc., priority 2021, published 2024).
# Where two headings read alike, the source gives them in different places.
# Tests used:
# [1] = target: T1, Cyclin Dependent Kinase 2/Cyclin E1 (CDK2-cycE1) (Homo sapiens, UniProt P24941); experiment: CDK2-cycE1 TR-FRET (LANCE) enzyme assay; type: biochemical; conditions: for FS CDK1/CDK2 / FS CDK4/CDK2: fold selectivity; for increased fold-selectivity CDK4/CDK2 over Comparator C: (+) sign after FS CDK4/CDK2;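 for improvement in potency against CDK2 (Ki) over Comparator C: fold lower CDK2 Ki than comparator c (Ki 0.032 µM)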
# T1 construct: purchased ProQinase 0050-0055-1
# Description: (§1) Cyclin Dependent Kinase 1/Cyclin A2 (CDK1-cycA2), Cyclin Dependent Kinase 2/Cyclin E1 (CDK2-cycE1), Cyclin Dependent Kinase 4/Cyclin D3 (CDK4-cycD3) and Cyclin Dependent Kinase 6/Cyclin D3 (CDK6-cycD3) enzyme assays were carried out as described below.
# (ii) CDK2-cycE1 TR-FRET (LANCE®)
# (§2) An Echo acoustic dispenser is used to create dose responses of compound dissolved in DMSO into a 384-well microplate. A 5 μL volume of enzyme mix is added to the well, and pre-incubated with compound for 30 minutes. […] Buffer conditions are 50 mM HEPES, pH 7.5, 10 mM MgCl2, 2 mM TCEP, 0.05% BGG and 0.01% Brij 35. The reaction is quenched with 5 μL of EDTA in detection buffer (15 mM [EDTA final]). Finally, a 5 μL TR-FRET detection mix is added to the quenched reaction, which includes Europium labeled anti-phospho-MBP. […] Signal is a ratio of the Acceptor and Donor fluorescence. Inhibition constants are calculated via the Morrison equation. Enzyme source of CDK2-cycE1 is ProQinase, catalog #: 0050-0055-1.
# [2] = target: T2, Cyclin Dependent Kinase 1/Cyclin A2 (CDK1-cycA2) (Homo sapiens, UniProt P06493); experiment: CDK1-cycA2 TR-FRET (Lance) enzyme assay; type: biochemical; conditions: for Ki: enzymatic assay; for FS CDK1/CDK2: fold selectivity, enzymatic Ki ratio
# T2 construct: purchased ProQinase 0134-0054-1
# Description: as §1
# (1) CDK1-cycA2 TR-FRET (Lance®)
# as §2, with “anti-phospho-4E-BP1.” for “anti-phospho-MBP.”, “equation.” for “equation. Enzyme source of CDK2-cycE1 is ProQinase, catalog #: 0050-0055-1.”
# [3] = target: T3, Cyclin Dependent Kinase 4/Cyclin D3 (CDK4-cycD3) (Homo sapiens, UniProt P11802); experiment: CDK4-cycD3 TR-FRET (LANCE) enzyme assay; type: biochemical; conditions: for Ki: enzymatic assay; for FS CDK4/CDK2: fold selectivity, enzymatic Ki ratio
# T3 construct: purchased Carna Biosciences 04-105
# Description: as §1
# (iii) CDK4-cycD3 TR-FRET (LANCE®)
# as §2, with “anti-phospho-4E-BP1.” for “anti-phospho-MBP.”, “equation.” for “equation. Enzyme source of CDK2-cycE1 is ProQinase, catalog #: 0050-0055-1.”
# SKOV-3 (ATCC HTB-77) = experiment: SKOV-3 EdU incorporation cell proliferation assay (CDK4/6-dependent); type: cell-based; conditions: for IC50: Homo sapiens, cellular assay, read-out: CDK4/6 SKOV-3 IC50; for FS SKOV-3/OVISE: fold selectivity, cellular IC50 ratio
# Description: (§3) (i) OVISE and SKOV-3 EdU Incorporation Cell Proliferation Assays
# (§4) Ovarian cancer cell proliferation is measured by incorporation of EdU (5-ethynyl-2′-deoxyuridine) into newly synthesized DNA. CDK2-dependent proliferation is determined using OVISE (JCRB1043, CCNE1-amplified) while CDK4/6-dependent effect is determined with SKOV-3 (ATCC HTB-77) which is not CCNE1-amplified.
# (§5) Cells are plated in 384-well plates in RPMI medium supplemented with 10% FBS. Compounds are added at desired concentrations with a final DMSO content of 0.5%, and cells incubated at 37° C./5% CO2 for 16 hours. EdU (Life Technologies) is added to a final concentration of 0.5 μM and incubation continued for 8 hours, followed by fixation with 4% paraformaldehyde. […] Images are acquired using Yokogawa CQ1 imaging cytometer with a 10×objective. […] The IC50 for inhibition of cell division is determined by fitting the fraction of EdU-positive cells as a function of compound dose using a 4-parameter logistic model.
# [4] = tested on: OVISE (JCRB1043, CCNE1-amplified); experiment: OVISE EdU incorporation cell proliferation assay (CDK2-dependent); type: cell-based; conditions: for IC50: cellular assay, read-out: CDK2 OVISE IC50; for FS SKOV-3/OVISE: fold selectivity; for increased fold-selectivity SKOV-3/OVISE over Comparator C: (+) sign after FS SKOV-3/OVISE; for improvement in CDK2 OVISE cell potency over Comparator C: in brackets after OVISE IC50, Comparator C 5.5 μM
# Description: as §3, §4, §5
# [5] = Table O, enzymatic assay, read-out: CDK2 Ki
# [6] = Table O, enzymatic CDK1 Ki over CDK2 Ki
# [7] = Table O, enzymatic CDK4 Ki over CDK2 Ki
# [8] = Table O, cellular SKOV-3 IC50 over OVISE IC50
# [9] = read-out: CDK2 activity / potency (enzymatic assay)
# [10] = Table Q, enzymatic assay, read-out: CDK2 Ki
# [11] = Table Q, in brackets after CDK2 Ki, Comparator C 0.032 μM
# T2 sequence (P06493 whole entry): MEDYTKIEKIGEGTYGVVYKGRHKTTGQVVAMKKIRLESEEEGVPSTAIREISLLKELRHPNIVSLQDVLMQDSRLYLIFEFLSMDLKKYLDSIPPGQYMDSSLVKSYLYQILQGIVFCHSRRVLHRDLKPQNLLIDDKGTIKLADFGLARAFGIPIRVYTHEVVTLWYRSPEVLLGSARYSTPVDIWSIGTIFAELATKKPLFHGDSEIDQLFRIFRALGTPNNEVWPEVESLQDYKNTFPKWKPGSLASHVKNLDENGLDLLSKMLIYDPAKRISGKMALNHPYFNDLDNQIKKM
# T2 sequence (P20248 whole entry partner): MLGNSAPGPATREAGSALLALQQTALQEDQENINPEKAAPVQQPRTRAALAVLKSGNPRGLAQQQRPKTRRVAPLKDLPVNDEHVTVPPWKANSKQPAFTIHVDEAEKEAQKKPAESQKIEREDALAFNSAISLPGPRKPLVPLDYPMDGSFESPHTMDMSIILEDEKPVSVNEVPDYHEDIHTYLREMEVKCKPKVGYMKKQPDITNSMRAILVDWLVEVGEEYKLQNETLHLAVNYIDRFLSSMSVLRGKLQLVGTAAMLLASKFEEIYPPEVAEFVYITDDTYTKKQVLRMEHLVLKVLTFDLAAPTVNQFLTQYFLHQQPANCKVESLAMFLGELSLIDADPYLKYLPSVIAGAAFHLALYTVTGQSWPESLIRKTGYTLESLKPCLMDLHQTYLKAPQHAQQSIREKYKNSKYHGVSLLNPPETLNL
# T3 sequence (P11802 whole entry): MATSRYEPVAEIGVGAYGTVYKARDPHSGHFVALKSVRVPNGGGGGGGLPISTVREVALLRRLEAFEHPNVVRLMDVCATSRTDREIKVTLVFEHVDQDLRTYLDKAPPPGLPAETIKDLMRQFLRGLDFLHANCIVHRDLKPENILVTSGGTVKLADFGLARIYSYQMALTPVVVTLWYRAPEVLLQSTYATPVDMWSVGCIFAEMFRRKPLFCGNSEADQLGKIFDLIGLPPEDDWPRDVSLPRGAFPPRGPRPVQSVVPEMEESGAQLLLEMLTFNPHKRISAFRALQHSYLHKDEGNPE
# T3 sequence (P30281 whole entry partner): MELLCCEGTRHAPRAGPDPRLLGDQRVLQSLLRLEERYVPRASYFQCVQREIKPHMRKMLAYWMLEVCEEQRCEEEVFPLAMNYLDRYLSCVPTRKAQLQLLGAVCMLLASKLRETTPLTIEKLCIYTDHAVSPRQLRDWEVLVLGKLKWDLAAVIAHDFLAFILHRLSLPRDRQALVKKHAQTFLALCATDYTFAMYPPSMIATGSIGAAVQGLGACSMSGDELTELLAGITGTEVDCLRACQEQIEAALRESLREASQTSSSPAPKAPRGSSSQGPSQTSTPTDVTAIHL
"Ki [1, 5]","FS CDK1/CDK2 [1, 6]","FS CDK4/CDK2 [1, 7]",Ki ([2]; Table O),Ki ([3]; Table O),"IC50 (SKOV-3 (ATCC HTB-77); SK-OV-3, Table O)",Structure (SMILES),IC50 ([4]; Table O),"FS SKOV-3/OVISE [4, 8]",further results
8.5 nM,24,34,200 nM,290 nM,10000 nM,"CC[C@H](C)NC(=O)O[C@@H]1CC[C@H](c2cc(Nc3cccnn3)n[nH]2)C1 (single isomer, unassigned) [Example 3B]",570 nM,18,–
18 nM,28,24,500 nM,430 nM,12000 nM,"CC[C@@H](C)NC(=O)O[C@@H]1CC[C@H](c2cc(Nc3cccnn3)n[nH]2)C1 (single isomer, unassigned) [Example 3C]",390 nM,31,–
63 nM,27,33,1700 nM,2100 nM,> 20000 nM,"C[C@H](NC(=O)O[C@@H]1CC[C@H](c2cc(Nc3cccnn3)n[nH]2)C1)C(F)(F)F (single isomer, unassigned) [Example 5A]",2200 nM,>9,–
26 nM,12,20,310 nM,510 nM,> 20000 nM,"C[C@@H](NC(=O)O[C@@H]1CC[C@H](c2cc(Nc3cccnn3)n[nH]2)C1)C(F)(F)F (single isomer, unassigned) [Example 5B]",2900 nM,>6.9,–
–,–,–,–,–,–,"CC(C)(C)NC(=O)O[C@@H]1CC[C@H](c2cc(Nc3ccc4c(n3)CCC4)n[nH]2)C1 [Comparator D, (1R,3S)-3-(3-((6,7-dihydro-5H-cyclopenta[b]pyridin-2-yl)amino)-1H-pyrazol-5-yl)cyclopentyl tert-butylcarbamate, reference compound]",–,–,"Ki [1, 9]: 2.7 nM; Ki ([2]; Table R): 54 nM; FS CDK1/CDK2 ([2]; Table R): 20; Ki ([3]; Table R): 5.2 nM; FS CDK4/CDK2 ([3]; Table R): 1.9; IC50 (SKOV-3 (ATCC HTB-77); SK-OV-3, Table R): 1800 nM; FS SKOV-3/OVISE (SKOV-3 (ATCC HTB-77); Table R): 0.47; IC50 ([4]; Table R): 3800 nM"
–,–,–,–,–,–,"CC(C)(C)NC(=O)O[C@@H]1CC[C@H](c2cc(Nc3ccccc3)n[nH]2)C1 [Comparator E, (1R,3S)-3-(3-(phenylamino)-1H-pyrazol-5-yl)cyclopentyl tert-butylcarbamate, reference compound]",–,–,"Ki ([1]; Table S, enzymatic assay, read-out: CDK2 Ki): 0.52 nM; Ki [1, 9]: 0.52 nM; Ki ([2]; Table S): 33 nM; FS CDK1/CDK2 ([2]; Table S): 63; Ki ([3]; Table S): 23 nM; FS CDK4/CDK2 ([3]; Table S): 44; IC50 (SKOV-3 (ATCC HTB-77); SK-OV-3, Table S): 2700 nM; FS SKOV-3/OVISE (SKOV-3 (ATCC HTB-77); Table S): 16; IC50 ([4]; Table S): 170 nM"
17 nM,26,26,440 nM,450 nM,> 20000 nM,"CC(C)NC(=O)O[C@@H]1CC[C@H](c2cc(Nc3ccn(C)c(=O)c3)n[nH]2)C1 [Example 2AA, (1R,3S)-3-(3-((1-methyl-2-oxo-1,2-dihydropyridin-4-yl)amino)-1H-pyrazol-5-y1)cyclopenty1 isopropylcarbamate]",4100 nM,>49,"increased fold-selectivity CDK4/CDK2 over Comparator C ([1]; Table Q): (+) (The (+) sign in Table Q signifies desirable increased fold-selectivity of the exemplary compounds over Comparator C); Ki [1, 10]: 17 nM; FS CDK1/CDK2 ([1]; Table Q, enzymatic): 26; FS CDK4/CDK2 ([1]; Table Q, enzymatic): 26; improvement in potency against CDK2 (Ki) over Comparator C [1, 11]: 1.9 fold; IC50 (SKOV-3 (ATCC HTB-77); SK-OV-3, Table Q): > 20000 nM; increased fold-selectivity SKOV-3/OVISE over Comparator C ([4]; Table Q): (+) (The (+) sign in Table Q signifies desirable increased fold-selectivity of the exemplary compounds over Comparator C); FS SKOV-3/OVISE ([4]; Table Q, cellular): > 4.9; improvement in CDK2 OVISE cell potency over Comparator C ([4]; Table Q): 1.3 fold"
1100 nM,29,6.3,32000 nM,6900 nM,> 20000 nM,"CC(C)NC(=O)O[C@@H]1CC[C@H](c2cc(Nc3cccn(C)c3=O)n[nH]2)C1 [Example 2BB, (1R,3S)-3-(3-((1-methyl-2-oxo-1,2-dihydropyridin-3-yl)amino)-1H-pyrazol-5-y1)cyclopenty1 isopropylcarbamate]",> 20000 nM,1.0,"Ki [1, 10]: 1100 nM; FS CDK1/CDK2 ([1]; Table Q, enzymatic): 29; FS CDK4/CDK2 ([1]; Table Q, enzymatic): 6.3; improvement in potency against CDK2 (Ki) over Comparator C [1, 11]: 0.3 fold; IC50 (SKOV-3 (ATCC HTB-77); SK-OV-3, Table Q): > 20000 nM; IC50 ([4]; Table Q): > 20000 nM; FS SKOV-3/OVISE ([4]; Table Q, cellular): 1.0; improvement in CDK2 OVISE cell potency over Comparator C ([4]; Table Q): 0.28 fold"
270 nM,41,185,11000 nM,–,> 20000 nM,"Cn1c(Nc2cc([C@H]3CC[C@@H](OC(=O)NC(C)(C)C)C3)[nH]n2)ccnc1=O [Example 8A, (1R,3S)-3-(3-((3-methyl-2-oxo-2,3-dihydropyrimidin-4-yl)amino)-1H-pyrazol-5-yl)cyclopentyl tert-butylcarbamate]",20000 nM,>1,–
–,–,–,–,150 nM,3000 nM,"Cn1c(Nc2cc([C@H]3CC[C@@H](OC(=O)NC45CC(C4)C5)C3)[nH]n2)nccc1=O [Example 9A, (1R,3S)-3-(3-((1-methyl-6-oxo-1,6-dihydropyrimidin-2-yl)amino)-1H-pyrazol-5-yl)cyclopentyl bicyclo[1.1.1]pentan-1-ylcarbamate]",–,–,–

Structure (SMILES),"Ki [1, 5]","FS CDK1/CDK2 [1, 6]","FS CDK4/CDK2 [1, 7]",Ki ([2]; Table O),Ki ([3]; Table O),"IC50 (SKOV-3 (ATCC HTB-77); SK-OV-3, Table O)",IC50 ([4]; Table O),"FS SKOV-3/OVISE [4, 8]",further results
"CC(C)NC(=O)O[C@@H]1CC[C@H](c2cc(Nc3cc(=O)[nH]cn3)n[nH]2)C1 [Example 2CC, (1R,3S)-3-(3-((6-oxo-1,6-dihydropyrimidin-4-yl)amino)-1H-pyrazol-5-yl)cyclopentyl isopropylcarbamate]",0.33 nM,100,390,34 nM,130 nM,> 20000 nM,2000 nM,>10,"improvement in potency against CDK2 (Ki) over Comparator C [1]: 97 fold; increased fold-selectivity CDK1/CDK2 over Comparator C ([1]; Table Q, (+) sign after FS CDK1/CDK2): (+) (The (+) sign in Table Q signifies desirable increased fold-selectivity of the exemplary compounds over Comparator C); increased fold-selectivity CDK4/CDK2 over Comparator C ([1]; Table Q): (+) (The (+) sign in Table Q signifies desirable increased fold-selectivity of the exemplary compounds over Comparator C); Ki [1, 10]: 0.33 nM; FS CDK1/CDK2 ([1]; Table Q, enzymatic): 100; FS CDK4/CDK2 ([1]; Table Q, enzymatic): 390; Ki [1, 9]: ≤ 1 nM; IC50 (SKOV-3 (ATCC HTB-77); SK-OV-3, Table Q): > 20000 nM; increased fold-selectivity SKOV-3/OVISE over Comparator C ([4]; Table Q): (+) (The (+) sign in Table Q signifies desirable increased fold-selectivity of the exemplary compounds over Comparator C); FS SKOV-3/OVISE ([4]; Table Q, cellular): > 10; improvement in CDK2 OVISE cell potency over Comparator C ([4]; Table Q): 2.8 fold"
